The record followed here is patent US20250179059A1 (The Regents of the University of California, priority 2021, published 2025).

The target in experiment [1] is T1, human BRD4 bromodomain II (Homo sapiens, UniProt O60885).
T1 construct: human BRD4 bromodomain II [based on Genbank NM_058243, residues 349-460]; host or cells: E. coli
The experiment is described as follows: Bromodomain binding assay (AlphaScreen), BRD4 BDII. As to conditions: AlphaScreen assay, Table C2; read-out: BRD4 BDII IC50. In a few lines: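 Read-out is AlphaScreen signal (ex 680 nm, em 520-620 nm) from streptavidin donor beads on a biotinylated acetylated histone H4 (aa 1-21) peptide and nickel acceptor beads on the His6-tagged bromodomain. IC50 values come from curve fits of percentage peptide binding against compound concentration.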

Experiment [2] relates to human SKM-1 acute myeloid leukemia cells. The experiment is described as follows: SKM-1 antiproliferation cell-based assay (ATPlite). As to conditions: Homo sapiens, SKM-1, 96 h, SKM-1 antiproliferation assay, 4 days, Table C2. A digest of the protocol: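 Log-phase cells in RPMI 1640/15% FBS were seeded at 34722 cells/mL and exposed for 4 days to nine-concentration DMSO serial dilutions in triplicate. Viability was read as ATP luminescence (ATPlite 1step), and IC50 values came from variable-slope non-linear regression.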

Regarding `CN1CCN(c2c(Cl)cc(-c3cc(F)cc(-c4ccnc(N5CCNCC5)c4)c3O)cc2Cl)C1=O` [Example 404, 1-(3,5-dichloro-5′-fluoro-2′-hydroxy-3′-(2-(piperazin-1-yl)pyridin-4-yl)-[1,1′-biphenyl]-4-yl)-3-methylimidazolidin-2-one], the IC50 in experiment [1] is more than 100 nM. The GI50 in experiment [2] is 300 to 3000 nM.
The matching figures for `CN1CCN(c2ccc(-c3cc(F)cc(-c4cnc(NCCO)c(N5CCNCC5)c4)c3O)cc2Cl)C1=O` [Example 405, 1-(3-chloro-5′-fluoro-2′-hydroxy-3′-(6-((2-hydroxyethyl)amino)-5-(piperazin-1-yl)pyridin-3-yl)-[1,1′-biphenyl]-4-yl)-3-methylimidazolidin-2-one]: 1 to 10 nM and 30 to 300 nM.
For `CN1CCN(c2ccc(-c3cc(F)cc(-c4ccnc(N5CCNCC5)c4)c3N)cc2Cl)C1=O` [Example 406, 1-(2′-amino-3-chloro-5′-fluoro-3′-(2-(piperazin-1-yl)pyridin-4-yl)-[1,1′-biphenyl]-4-yl)-3-methylimidazolidin-2-one], in that order: 10 to 100 nM and 30 to 300 nM.
For `CN1CCN(c2ccc(-c3cc(F)cc(-c4cnc(Cl)c(N5CCNCC5)c4)c3O)cc2Cl)C1=O` [Example 407, 1-(3-chloro-3′-(6-chloro-5-(piperazin-1-yl)pyridin-3-yl)-5′-fluoro-2′-hydroxy-[1,1′-biphenyl]-4-yl)-3-methylimidazolidin-2-one], in that order: 1 to 10 nM and 0.3 to 30 nM.
Consider `Cn1ccn(-c2c(Cl)cc(-c3cc(F)cc(-c4ccnc(N5CCNCC5)c4)c3O)cc2Cl)c1=O` [Example 408, 1-(3,5-dichloro-5′-fluoro-2′-hydroxy-3′-(2-(piperazin-1-yl)pyridin-4-yl)-[1,1′-biphenyl]-4-yl)-3-methyl-1H-imidazol-2(3H)-one], for which the IC50 in experiment [1] fell in the range of 10 to 100 nM. In experiment [2], this compound came in with a 50% growth inhibitory concentration (GI50) of 300 to 3000 nM.
As to `[2H]C([2H])([2H])n1ccn(-c2ccc(-c3cc(F)cc(-c4ccnc(N5CCNCC5)c4)c3O)cc2Cl)c1=O` [Example 409, 1-(3-chloro-5′-fluoro-2′-hydroxy-3′-(2-(piperazin-1-yl)pyridin-4-yl)-[1,1′-biphenyl]-4-yl)-3-(trideuteromethyl)-1H-imidazol-2(3H)-one], in experiment [1], the IC50 lay in the range of 1 to 10 nM. This compound showed a GI50 in experiment [2] of 0.3 to 30 nM.
The matching figures for `Cn1ccn(-c2ccc(-c3cc(F)cc(-c4ccnc(N5CCC[C@H](N)C5)c4)c3O)cc2Cl)c1=O` [Example 411, (S)-1-(3′-(2-(3-aminopiperidin-1-yl)pyridin-4-yl)-3-chloro-5′-fluoro-2′-hydroxy-[1,1′-biphenyl]-4-yl)-3-methyl-1H-imidazol-2(3H)-one]: 0.01 to 1 nM and 0.3 to 30 nM.
Consider `[2H]C([2H])([2H])N1CCN(c2ccc(-c3cc(F)cc(-c4ccnc(N5CCNCC5)c4)c3O)cc2Cl)C1=O` [Example 412, 1-(3-chloro-5′-fluoro-2′-hydroxy-3′-(2-(piperazin-1-yl)pyridin-4-yl)-[1,1′-biphenyl]-4-yl)-^3-deuteromethylimidazolidin-2-one], for which the IC50 in experiment [1] was 0.01 to 1 nM. The GI50 in experiment [2] lay in the range of 30 to 300 nM.
The matching figures for `Cn1ccn(-c2ccc(-c3cc(F)cc(-c4ccnc(N5CCC(N)CC5)c4)c3O)cc2Cl)c1=O` [Example 414, 1-(3′-(2-(4-aminopiperidin-1-yl)pyridin-4-yl)-3-chloro-5′-fluoro-2′-hydroxy-[1,1′-biphenyl]-4-yl)-3-methyl-1H-imidazol-2(3H)-one]: 0.01 to 1 nM and 30 to 300 nM.
For `CN1CCN(c2ccc(-c3cc(F)cc(-c4cnc(N5CCOCC5)c(N5CCNCC5)c4)c3O)cc2Cl)C1=O` [Example 415, 1-(3-chloro-5′-fluoro-2′-hydroxy-3′-(6-morpholino-5-(piperazin-1-yl)pyridin-3-yl)-[1,1′-biphenyl]-4-yl)-3-methylimidazolidin-2-one], in that order: 1 to 10 nM and 30 to 300 nM.
For `CN1CCN(c2ccc(-c3cc(F)cc(-c4ncc(N5CCOCC5)cc4N4CCNCC4)c3O)cc2Cl)C1=O` [Example 416, 1-(3-chloro-5′-fluoro-2′-hydroxy-3′-(5-morpholino-3-(piperazin-1-yl)pyridin-2-yl)-[1,1′-biphenyl]-4-yl)-3-methylimidazolidin-2-on], in that order: 10 to 100 nM and not below 3000 nM.
In the case of `O=C1CCN1c1ccc(-c2cc(F)cc(-c3ccnc(N4CCNCC4)c3)c2O)cc1Cl` [Example 417, 1-(3-chloro-5′-fluoro-2′-hydroxy-3′-(2-(piperazin-1-yl)pyridin-4-yl)-[1,1′-biphenyl]-4-yl)azetidin-2-one], the IC50 in experiment [1] is 1 to 10 nM. The compound further yielded a GI50 in experiment [2] of 300 to 3000 nM.
The matching figures for `CC(C)Oc1cc(-c2cc(F)cc(-c3ccnc(N4CCNCC4)c3)c2O)cc(Cl)c1N1CCN(C)C1=O` [Example 418, 1-(3-chloro-5′-fluoro-2′-hydroxy-5-isopropoxy-3′-(2-(piperazin-1-yl)pyridin-4-yl)-[1,1′-biphenyl]-4-yl)-3-methylimidazolidin-2-one]: 10 to 100 nM and 300 to 3000 nM.
The matching figures for `Cc1cc(-c2ccnc(N3CCNCC3)c2)c(O)c(-c2ccc(-n3ccn(C)c3=O)c(Cl)c2)c1` [Example 420, 1-(3-chloro-2′-hydroxy-5′-methyl-3′-(2-(piperazin-1-yl)pyridin-4-yl)-[1,1′-biphenyl]-4-yl)-3-methyl-1H-imidazol-2(3H)-one]: 0.01 to 1 nM and 0.3 to 30 nM.
The matching figures for `CN1CCN(c2ccc(-c3cc(F)cc(-c4cnc(OC5CCC(O)CC5)c(N5CCNCC5)c4)c3O)cc2Cl)C1=O` (stereo not drawn) [Example 421, 1-(3-chloro-5′-fluoro-2′-hydroxy-3′-(6-((4-hydroxycyclohexyl)oxy)-5-(piperazin-1-yl)pyridin-3-yl)-[1,1′-biphenyl]-4-yl)-3-methylimidazolidin-2-one]: 0.01 to 1 nM and 30 to 300 nM.
With `Cn1cc(-c2cc(F)cc(-c3ccc(-n4ccn(C)c4=O)c(Cl)c3)c2O)cc(N2CC[C@H](N)C2)c1=O` [Example 422, (S)-3-(3-aminopyrrolidin-1-yl)-5-(3′-chloro-5-fluoro-2-hydroxy-4′-(3-methyl-2-oxo-2,3-dihydro-1H-imidazol-1-yl)-[1,1′-biphenyl]-3-yl)-1-methylpyridin-2(1H)-one], the IC50 in experiment [1] fell in the range of 0.01 to 1 nM. For the same compound, in experiment [2], the GI50 lay in the range of 0.3 to 30 nM.
For `Cn1ccn(-c2ccc(-c3cc(F)cc(-c4ccnc(N5CC[C@H](N)C5)c4)c3O)cc2Cl)c1=O` [Example 423, (S)-1-(3′-(2-(3-aminopyrrolidin-1-yl)pyridin-4-yl)-3-chloro-5′-fluoro-2′-hydroxy-[1,1′-biphenyl]-4-yl)-3-methyl-1H-imidazol-2(3H)-one], in that order: 0.01 to 1 nM and 0.3 to 30 nM.
The matching figures for `CN1CCN(c2ccc(-c3cc(F)cc(-c4cc(N5CCNCC5)c5[nH]ncc5c4)c3O)cc2Cl)C1=O` [Example 424, 1-(3-chloro-5′-fluoro-2′-hydroxy-3′-(7-(piperazin-1-yl)-1H-indazol-5-yl)-[1,1′-biphenyl]-4-yl)-3-methylimidazolidin-2-one]: 0.01 to 1 nM and 30 to 300 nM.
With `Cn1cc(-c2cc(F)cc(-c3ccc(-n4ccn(C)c4=O)c(Cl)c3)c2O)cc(N2CCC[C@H](N)C2)c1=O` [Example 425, (S)-3-(3-aminopiperidin-1-yl)-5-(3′-chloro-5-fluoro-2-hydroxy-4′-(3-methyl-2-oxo-2,3-dihydro-1H-imidazol-1-yl)-[1,1′-biphenyl]-3-yl)-1-methylpyridin-2(1H)-one], the IC50 in experiment [1] lay within 0.01 to 1 nM. This compound yielded a GI50 in experiment [2] of 30 to 300 nM.
The matching figures for `CN1CCN(c2c(Cl)cc(-c3cc(F)cc(-c4ccnc(N5CCNCC5)c4)c3O)cc2C#N)C1=O` [Example 426, 5-chloro-5′-fluoro-2′-hydroxy-4-(3-methyl-2-oxoimidazolidin-1-yl)-3′-(2-(piperazin-1-yl)pyridin-4-yl)-[1,1′-biphenyl]-3-carbonitrile]: more than 100 nM and not below 3000 nM.
The matching figures for `Cn1cc(-c2cc(F)cc(-c3ccc(-n4ccn(C)c4=O)c(Cl)c3)c2O)cc(N2CCC(N)CC2)c1=O` [Example 427, 3-(4-aminopiperidin-1-yl)-5-(3′-chloro-5-fluoro-2-hydroxy-4′-(3-methyl-2-oxo-2,3-dihydro-1H-imidazol-1-yl)-[1,1′-biphenyl]-3-yl)-1-methylpyridin-2(1H)-one]: 1 to 10 nM and 300 to 3000 nM.
For `CN1CCN(c2ccc(-c3cc(F)cc(-c4cnc(CCO)c(N5CCNCC5)c4)c3O)cc2Cl)C1=O` [Example 428, 1-(3-chloro-5′-fluoro-2′-hydroxy-3′-(6-(2-hydroxyethyl)-5-(piperazin-1-yl)pyridin-3-yl)-[1,1′-biphenyl]-4-yl)-3-methylimidazolidin-2-one], in that order: 1 to 10 nM and 30 to 300 nM.
Consider `CN[C@H]1CCN(c2cc(-c3cc(F)cc(-c4ccc(-n5ccn(C)c5=O)c(Cl)c4)c3O)ccn2)C1` [Example 429], for which, in experiment [1], the IC50 was 0.01 to 1 nM. This compound also showed a GI50 in experiment [2] of 0.3 to 30 nM.
`CN1CCN(c2cc(-c3cc(F)cc(-c4ccc(-n5ccn(C)c5=O)c(Cl)c4)c3O)ccn2)CC1` [Example 430, 1-(3-chloro-5′-fluoro-2′-hydroxy-3′-(2-(4-methylpiperazin-1-yl)pyridin-4-yl)-[1,1′-biphenyl]-4-yl)-3-methyl-1H-imidazol-2(3H)-one]: the IC50 in experiment [1] was 0.01 to 1 nM. Besides, in experiment [2], the GI50 lay within 0.3 to 30 nM.
